# Measured values reported in patent publication US6841566B2, “Viral polymerase inhibitors” (Boehringer Ingelheim, Ltd., priority 2001, dated 2005).
# Test system: Huh7 cells that stably maintain a subgenomic HCV replicon (S22.3 cell-line)
# Experiment: Cell based HCV RNA replication assay (S22.3 replicon cells, real-time RT-PCR)
# Settings: Hepatitis C virus, Huh-7, 72 hours
# Method: Huh7 cells that stably maintain a subgenomic HCV replicon were established as previously described (Lohman et al., 1999. Science 285: 110-113) and designated as the S22.3 cell-line. S22.3 cells were maintained in Dulbecco's Modified […] Medium (DMEM) supplemented with 10% FBS and 0.5 mg/mL neomycin (Standard Medium). During the assay, DMEM medium supplemented with 10% FBS, containing 0.5% DMSO and lacking neomycin was used (Assay Medium). 16 hours prior to compound addition, S22.3 cells are trypsinized and diluted to 100 000 cells/ml in Standard Medium. 100μL (10 000 cells) are distributed into each well of a 96-well plate. The plate was then incubated at 37° C. with 5% CO2 until the next day.
# 10 μL of test compound (in 100% DMSO) was added to 2 ml of Assay Medium for a final DMSO concentration of 0.5% and the solution was sonicated for 15 min and filtered through a […] Millipore Filter Unit. 900 μl was transferred into row A of a Polypropylene Deep-Well Titer Plate. Rows B to H, contain 400 μL aliquots of Assay Medium (containing 0.5% DMSO), and were used to prepare serial dilutions (1/2) by transferring 400 μl from row to row (no compound was included in row H).
# Cell culture medium was aspirated from the 96-well plate containing the S22.3 cells. 175 μL of assay medium with the appropriate dilution of test compound was transferred from each well of the compound plate to the corresponding well of the cell culture plate (row H was used as the “No inhibition control”). The cell culture plate was incubated at 37° C. with 5% CO2 for 72 hours.
# Following the 72 hour incubation period, the total cellular RNA was extracted from the S22.3 cells of the 96-well plate using the RNeasy 96 kit (Qiagen®, RNeasy Handbook. 1999.). Briefly, assay medium was completely removed from cells and 100 μL of RLT buffer (Qiagen®) containing 143 mM β-mercaptoethanol was added to each well of the 96-well cell-culture plate. The microplate was gently shaken for 20 sec. 100 μL of 70% ethanol was then added to each microplate well, and mixed by pipetting. The lysate was removed and applied to the wells of a RNeasy 96 (Qiagen®) plate that was placed on top of a Qiagen® Square-Well Block. The RNeasy 96 plate was sealed with tape and the Square-Well Block with the RNeasy 96 plate was loaded into the holder and placed in a rotor bucket of a 4K15C centrifuge. The sample was centrifuged at 6000 rpm (˜5600×g) for 4 min at room temperature. The tape was removed from the plate and 0.8 ml of Buffer RW1 (Qiagen® RNeasy 96 kit) was added to each well of the RNeasy 96 plate. The RNeasy 96 plate was sealed with a new piece of tape and centrifuged at 6000 rpm for 4 min at room temperature. The RNeasy 96 plate was placed on top of another clean Square-Well Block, the tape removed and 0.8 ml of Buffer RPE (Qiagen® RNeasy 96 kit) was added to each well of the RNeasy 96 plate. The RNeasy 96 plate was sealed with a new piece of tape and centrifuged at 6000 rpm for 4 min at room temperature. The tape was removed and another 0.8 ml of Buffer RPE (Qiagen® RNeasy 96 kit) was added to each well of the RNeasy 96 plate. The RNeasy 96 plate was sealed with a new piece of tape and centrifuged at 6000 rpm for 10 min at room temperature. Tape was removed, the RNeasy 96 plate was placed on top of a rack containing 1.2-mL collection microtubes. The RNA was eluted by adding 50 μL of RNase-free water to each well, sealing plate with a new piece of tape and incubated for 1 min at room temperature. The plate was then centrifuged at 6000 rpm for 4 min at room temperature. The elution step was repeated with a second volume of 50 μl RNase-free water. The microtubes with total cellular RNA are stored at −70° C.
# RNA was quantified on the STORM® system (Molecular Dynamics®) using the RiboGreen® RNA Quantification Kit (Molecular Probes®). Briefly, the RiboGreen reagent was diluted 200-fold in TE (10 mM Tris-HCl pH=7.5, 1 mM EDTA). Generally, 50 μL of reagent was diluted in 10 mL TE. […]
row,SMILES,EC50 [µM]
1,C/C(=C\c1ccc(NC(=O)C2(NC(=O)c3ccc4c(c3)nc(-c3ccoc3)n4C3CCCCC3)CCCC2)cc1)C(=O)O [compound 1083],≤ 5
2,O=C(O)/C=C/c1ccc(NC(=O)C2(NC(=O)c3ccc4c(c3)nc(-c3ccoc3)n4C3CCCC3)CCCC2)cc1 [compound 2013],5 to 50
3,O=C(NC1(C(=O)Nc2ccc3[nH]c(C(=O)O)cc3c2)CCCC1)c1ccc2c(c1)nc(-c1ccoc1)n2C1CCCCC1 [compound 1098],5 to 50
4,O=C(O)C=Cc1ccc(NC(=O)C2(NC(=O)c3ccc4c(c3)nc(-c3ccoc3)n4C3CC4CCC3C4)CCCC2)cc1 (mixture of isomers) [compound 2021],≤ 5
5,CC(C)(C)OC(=O)N1CCC(NC(=O)c2ccc3c(c2)nc(-c2ccoc2)n3C2CCCCC2)(C(=O)Nc2ccc(/C=C/C(=O)O)cc2)CC1 [compound 1089],≤ 5
6,O=C(O)/C=C/c1ccc(NC(=O)C2(NC(=O)c3ccc4c(c3)nc(-c3ccccn3)n4C3CCCC3)CCCC2)cc1 [compound 2012],5 to 50
7,C[C@@H](NC(=O)c1ccc2c(c1)nc(-c1ccccn1)n2C1CCCCC1)C(=O)Nc1ccc(/C=C/C(=O)O)cc1 [compound 2002],≤ 5
8,Cc1c(C(=O)O)sc2ccc(NC(=O)C3(NC(=O)c4ccc5c(c4)nc(-c4ccoc4)n5C4CCCCC4)CCCC3)cc12 [compound 1099],≤ 5
9,O=C(O)/C=C/c1ccc(NC(=O)C2(NC(=O)c3ccc4c(c3)nc(-c3ccoc3)n4C3CCCCC3)CCC2)cc1 [compound 1094],≤ 5
